In patent US8563729B2, “Thienopyridone derivatives as AMP-activated protein kinase (AMPK) activators” (Merck Patent GmbH, priority 2008, dated 2013):

Tests used:
[1] = test system: H-2 Kb cells; assay: Glucose uptake in H-2 Kb cells (in vitro cellular test); type: cell-based, mouse; details: H-2 Kb cells differentiated in muscle, 4 hours incubation, 2-deoxy-D-[1,2 3H] glucose uptake 10 min
Description: Glucose Uptake in H-2 Kb Cells (In Vitro Cellular Test)
The following cellular test allows the determination of the effect of AMPK activators such as compounds of formula (I) onto glucose uptake in a muscle cellular model.
H-1-2 Kb cells derived from heterozygous H-2 Kb tsA58 transgenic mouse were grown in 24-well in plates coated with matrigel and were cultured at 33° C. for 4 days under permissive conditions, as described previously by Fryer et al. (Diabetes 49 (12): 1978, 2000).
For differentiation in muscle, cells were switched to non-permissive culture conditions (37° C. in the absence of interferon-γ). After 3 days, cells were incubated for 4 hours in DMEM 1 g/l glucose culture medium containing different concentrations of the tested molecules. Then glucose uptake was measured by incubating the cells for 10 min with radiolabelled 2-deoxy-D-[1,2 ^3H] glucose. Glucose uptake was terminated by rapidly washing the plates 2 times with ice-cold NaCl 0.9%. The cells were then solubilized in 0.1N NaOH for 30 min. Radioactivity was determined by liquid scintillation counting.
N°: Number of the molecule
Activity (table III): Concentration of compound (I) for a glucose uptake equal or higher to glucose uptake induced by insulin (170 nM)
^++ or **concentration of compound (I) ≦10 micro Molar
^+ or *concentration of compound (I) >10 micro Molar

[2] = target: T1, AMPK protein (recombinant α1β1γ2) (Homo sapiens, UniProt Q13131+Q9Y478); assay: AMPK enzymatic activity (Delfia, AMARA peptide substrate); type: biochemical; details: compound 30 μM vs AMP 30 μM; 125 μM ATP; ratio 90% or higher = direct activator
T1 construct: made in house; host or cells: E. coli
Outline: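 Human α1β1γ2 AMPK expressed in E. coli, reactivated in vitro by LKB1, assayed in 50 mM Hepes pH 7.4 with 125 μM ATP and AMARA peptide for 30 min at room temperature; phosphorylation detected by Delfia anti-phosphoserine antibody. Activity = % of basal control at 30 μM compound relative to that of 30 μM AMP.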

T1 sequence (Q13131 whole entry): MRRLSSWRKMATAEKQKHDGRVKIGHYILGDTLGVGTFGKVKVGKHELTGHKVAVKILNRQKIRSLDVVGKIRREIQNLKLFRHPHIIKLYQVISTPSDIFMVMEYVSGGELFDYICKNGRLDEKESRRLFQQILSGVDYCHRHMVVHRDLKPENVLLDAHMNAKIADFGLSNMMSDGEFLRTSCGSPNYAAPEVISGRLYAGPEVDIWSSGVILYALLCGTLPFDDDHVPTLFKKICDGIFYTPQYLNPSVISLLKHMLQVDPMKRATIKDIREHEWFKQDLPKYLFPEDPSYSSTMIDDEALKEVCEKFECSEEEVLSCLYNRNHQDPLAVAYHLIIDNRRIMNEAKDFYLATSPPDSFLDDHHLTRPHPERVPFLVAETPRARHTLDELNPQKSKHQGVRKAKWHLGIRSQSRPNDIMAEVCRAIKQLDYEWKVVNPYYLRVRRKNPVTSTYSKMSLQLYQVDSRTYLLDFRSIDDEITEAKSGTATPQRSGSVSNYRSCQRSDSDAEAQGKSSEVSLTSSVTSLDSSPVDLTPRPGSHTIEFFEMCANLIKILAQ
T1 sequence (Q9Y478 whole entry): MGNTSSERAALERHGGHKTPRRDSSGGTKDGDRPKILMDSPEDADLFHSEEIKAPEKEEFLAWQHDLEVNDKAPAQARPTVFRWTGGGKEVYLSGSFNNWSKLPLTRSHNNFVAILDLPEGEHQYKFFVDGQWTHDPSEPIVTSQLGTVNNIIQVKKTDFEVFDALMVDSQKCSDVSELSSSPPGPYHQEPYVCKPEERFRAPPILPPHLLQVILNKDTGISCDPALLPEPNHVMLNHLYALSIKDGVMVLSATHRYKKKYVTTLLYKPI
T1 sequence (Q9UGJ0 whole entry partner): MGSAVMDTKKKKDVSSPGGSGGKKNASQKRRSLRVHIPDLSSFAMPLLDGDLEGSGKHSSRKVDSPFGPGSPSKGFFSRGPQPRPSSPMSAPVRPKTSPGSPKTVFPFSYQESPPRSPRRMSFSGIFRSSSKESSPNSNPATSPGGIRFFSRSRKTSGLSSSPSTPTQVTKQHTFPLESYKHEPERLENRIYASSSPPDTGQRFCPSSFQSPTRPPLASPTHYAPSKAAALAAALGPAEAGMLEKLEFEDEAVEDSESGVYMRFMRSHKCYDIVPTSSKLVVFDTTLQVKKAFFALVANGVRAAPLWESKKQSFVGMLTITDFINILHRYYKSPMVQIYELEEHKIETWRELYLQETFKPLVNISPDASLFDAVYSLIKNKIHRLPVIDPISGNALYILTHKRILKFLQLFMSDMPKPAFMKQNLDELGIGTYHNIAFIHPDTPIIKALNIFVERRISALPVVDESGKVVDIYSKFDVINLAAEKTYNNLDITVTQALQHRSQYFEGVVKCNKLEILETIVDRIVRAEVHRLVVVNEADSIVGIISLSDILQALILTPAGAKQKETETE

SMILES | Activity (table III): Concentration of compound (I) for a glucose uptake equal or higher to glucose uptake induced by insulin (170 nM) [1] | activity: Ratio between the % of control (basal activity) of compound of formula (I) at 30 μM and the % of control (basal activity) of AMP at 30 μM [2]
O=c1[nH]c2sc(Cl)c(-c3ccccc3)c2c(O)c1-c1ccccc1F [Compound 165] | + (^+ or *concentration of compound (I) >10 micro Molar) | 238%
O=c1[nH]c2sc(Cl)c(-c3ccccc3)c2c(O)c1-c1cccnc1 [Compound 166] | + (^+ or *concentration of compound (I) >10 micro Molar) | 225%
COc1ccc(-c2c(O)c3c(-c4ccccc4)c(Cl)sc3[nH]c2=O)cn1 [Compound 167] | ++ (^++ or **concentration of compound (I) ≦10 micro Molar) | 592%
O=c1[nH]c2sc(Cl)c(-c3ccccc3)c2c(O)c1-c1cccs1 [Compound 168] | ++ (^++ or **concentration of compound (I) ≦10 micro Molar) | 174%
O=c1[nH]c2sc(Cl)c(-c3ccccc3)c2c(O)c1-c1ccsc1 [Compound 169] | ++ (^++ or **concentration of compound (I) ≦10 micro Molar) | 196%
O=c1[nH]c2sc(Cl)c(-c3ccccc3)c2c(O)c1-c1ccc(C(F)(F)F)cc1 [Compound 171] | + (^+ or *concentration of compound (I) >10 micro Molar) | 147%
O=c1[nH]c2sc(Cl)c(-c3ccccc3)c2c(O)c1-c1ccc(F)cc1 [Compound 172] | + (^+ or *concentration of compound (I) >10 micro Molar) | 153%
O=c1[nH]c2sc(Cl)c(-c3ccccc3)c2c(O)c1-c1ccc(Cl)cc1 [Compound 173] | ++ (^++ or **concentration of compound (I) ≦10 micro Molar) | 160%
Cc1ccc(-c2c(O)c3c(-c4ccccc4)c(Cl)sc3[nH]c2=O)cc1 [Compound 174] | + (^+ or *concentration of compound (I) >10 micro Molar) | 245%
O=c1[nH]c2sc(Cl)c(-c3ccccc3)c2c(O)c1-c1cccc(F)c1 [Compound 175] | + (^+ or *concentration of compound (I) >10 micro Molar) | 252%
Cc1cccc(-c2c(O)c3c(-c4ccccc4)c(Cl)sc3[nH]c2=O)c1 [Compound 176] | ++ (^++ or **concentration of compound (I) ≦10 micro Molar) | 245%
COc1ccc(-c2c(O)c3c(-c4ccccc4)c(Cl)sc3[nH]c2=O)cc1OC [Compound 177] | ++ (^++ or **concentration of compound (I) ≦10 micro Molar) | 234%
O=c1[nH]c2sc(Cl)c(-c3ccc(Cl)cc3)c2c(O)c1-c1ccccc1 [Compound 178] | ++ (^++ or **concentration of compound (I) ≦10 micro Molar) | 138%
